Test results taken from patent US11091517B2, “Peptide derivative and pharmaceutical composition containing same” (TOKUSHIMA UNIVERSITY, priority 2017, dated 2021).
Where two headings read alike, the source gives them in different places. *1 amine or outer side, *2 acyl side, *3 side chain or, on linkers, in order; H or OH if unused. Where a SMILES comes first, the peptide text is derived from it. Bridges are numbered along the chain shown (N, C = ends). NH(CH2)4NH = C(CCN[*:2])CN[*:1]

What was measured:
PKA = target: T1, PKA (Homo sapiens, UniProt P17612); assay: PKA activity of BIG3 immunoprecipitates from SK-BR-3 cells; format: cell-based
T1 construct: endogenous in cells; host or cells: SK-BR-3

PP1Cα = PP1Cα activity of BIG3 immunoprecipitates from SK-BR-3 cells; format: cell-based, human; details: SK-BR-3, 24 hours; 10 μM H-89, 100 μg/mL trastuzumab, 10 nM lapatinib
BIG3 phosphorylation = BIG3 phosphorylation (Ser305, Ser1208) in SK-BR-3 and KPL-4 cells, immunoblot; format: cell-based, human; details: SK-BR-3 and KPL-4, 30 minutes; 10 μM H-89, 100 μg/mL trastuzumab, 10 nM lapatinib
MCF-7 cells = format: cell-based, human; details: for inhibition rate on estrogen-dependent cell growth: 96 h
chymotrypsin = target: T2, chymotrypsin (Bos taurus, UniProt P00766); assay: Chymotrypsin resistance (HPLC); format: in vitro ADME; details: 1 μg chymotrypsin, 5 μg peptide, 37° C., 24 hours
T2 construct: purchased Sigma C7761
Method: The chromatograms for double stapled ERAP No. 45 (A) and double stapled ERAP No. 46 (B), when a double stapled ERAP was reacted with chymotrypsin at 37° C. for 24 hours, are shown. In the experiment, the double stapled ERAP-chymotrypsin reaction solutions were subjected to high performance liquid chromatography (reverse-phase column, 0.3 mL/min flow rate, gradient elution (solution A: 0.1% trifluoroacetic acid; solution B: 0.1% trifluoroacetic acid/acetonitrile, A/B=90/10 (0-20 min) to 40/60 (20-80 min))), and detection was carried out by UV at 210 nm.
Chymotrypsin resistance was analyzed by adding 1 μg of chymotrypsin (#C7761, Sigma) and 5 μg of double stapled ERAP in a buffer (50 mM Tris-HCl; pH 8.0, 10 mM CaCl2), allowing this to react at 37° C. for 24 hours, and then subjecting the whole amount to high-performance liquid chromatography (HPLC). For the HPLC, a reverse-phase column (Inertsil Peptides C18 250×3.0 mm I.D.; GL Science, Tokyo, Japan) was used, gradient elution was performed using Solution A (0.1% trifluoroacetic acid) and Solution B (0.1% trifluoroacetic acid/acetonitrile) (A/B=90/10 (0-20 min), 90/10-40/60 (20-80 min)) at a flow rate of 0.3 mL/min, and a chromatogram for each double stapled ERAP was obtained by UV detection at 210 nm.

BT-20 = format: cell-based, human; details: 96 h
Method: (§1) For the single stERAP and double stERAP #46, peptides were added at a total of eleven concentrations prepared by three-fold serial dilution starting from 20 μM. For the double stERAP #45, peptides were added at a total of eight concentrations prepared by two-fold serial dilation starting from 50 μM. The number of viable cells were measured 96 hours after the peptide addition, and relative values thereof were calculated based on the negative control cells without peptide addition and plotted. Experiments using double stERAP #45 on the SW982 cell line were not carried out.
(§2) MDA-MB-231 cells and SW982 cells were cultured using Leibovitz's L-15 medium (Thermo Fisher Scientific) at 37° C. without CO2 concentration control. All media were used by supplementing 10% FBS (Thermo Fisher Scientific) and a 1% antibiotic/antimycotic solution (Wako Pure Chemical, Osaka, Japan).
(§3) SK-BR-3 cells, BT-20 cells, and MDA-MB-231 cells were seeded into 48-well plates at 1×10^4 cells/200 μL in each well, and SW982 cells were seeded into 48-well plates at 0.5×10^4 cells/200 μL in each well. 48 hours later, the medium in each well was exchanged to a medium supplemented with a peptide (single stERAP and double stERAP #46: three-fold serial dilution from 20 μM, double stERAP #45: two-fold serial dilution starting from 50 μM), and after culturing for another 96 hours, the level of cell growth was measured using the Cell Counting Kit-8 (Dojindo, Kumamoto, Japan). Data were obtained from three independent experiments, a graph (mean±standard deviation) was produced using a graphing and data analyzing software SigmaPlot (Systat Software, San Jose, Calif., USA), and the 50% inhibition concentration (IC50) of the peptide against cell growth was calculated.

SK-BR-3 = format: cell-based, human; details: 96 h
Method: as §1, §2, §3

MDA-MB-231 = format: cell-based, human; details: 96 h
Method: as §1, §2, §3

BIG3-PHB2 interaction = target: T3, BIG3-PHB2 interaction (Homo sapiens, UniProt Q99623); assay: Inhibition of BIG3-PHB2 interaction in MCF-7 cells (immunoprecipitation, Western blotting); format: cell-based; details: MCF7, 96 hours, 10 nM estrogen, read-out: inhibition rate of BIG3-PHB2 binding
T3 construct: endogenous in cells; host or cells: MCF-7
T3 sequence (Q99623 2-299 limits assumed): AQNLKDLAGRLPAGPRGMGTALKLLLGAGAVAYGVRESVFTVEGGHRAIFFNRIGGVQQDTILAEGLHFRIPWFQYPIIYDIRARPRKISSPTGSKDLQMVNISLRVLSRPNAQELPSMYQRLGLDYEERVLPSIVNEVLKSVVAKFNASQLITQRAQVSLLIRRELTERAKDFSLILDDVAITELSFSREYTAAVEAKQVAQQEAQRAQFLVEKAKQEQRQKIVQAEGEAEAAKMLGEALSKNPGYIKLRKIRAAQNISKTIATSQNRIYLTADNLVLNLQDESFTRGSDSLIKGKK
Method: (A, B) Inhibitory effect of double stapled ERAP No. 46 on BIG3-PHB2 interaction in MCF-7 cells was evaluated by Western blotting. […] Then, the cells were lysed, immunoprecipitation was performed using an anti-BIG3 antibody, and immunoblot analyses were performed using the antibodies indicated in the drawing. The binding inhibition rates are expressed as proportions to the band area for PHB2 in untreated cells which is set as 100.
For immunoblot analyses, after performing SDS-PAGE, the membranes blotted with proteins were blocked with 4% BlockAce solution (Dainippon Pharmaceutical, Osaka, Japan) for 3 hours and then incubated to react for 12 hours with antibodies against BIG3 (1:1,000) and PHB2 (1:1,000) (Abcam, Cambridge, UK). After allowing interaction with HRP-labeled secondary antibodies (anti-rat IgG-HRP for BIG3, 1:5,000; and anti-rabbit IgG-HRP for PHB2, 1:1,000) (Santa Cruz Biotechnology, Dallas, Tex., USA) for 1 hour, the blots were developed with the Enhanced Chemiluminescence (ECL) system (GE Healthcare, Buckinghamshire, UK) and scanned using the Image Reader LAS-3000 mini (Fujifilm, Tokyo, Japan). […]

SW982 = format: cell-based, human; details: 96 h
Method: as §1, §2, §3

PKCα = PKCα activity of PKCα immunoprecipitates from SK-BR-3 cells; format: cell-based, human; details: SK-BR-3, 10 nM lapatinib in the presence of stERAP, 24 hours
Method: (A) Immunoblots are shown which indicate that PHB2 (Ser39) is phosphorylated in a PKCα-dependent manner in a HER2-positive breast cancer cell line. SK-BR-3 cells in which PKCα expression was suppressed by the siRNA method were treated for 24 hours with 1 μM stERAP, then cell lysate thereof was subjected to immunoprecipitation using an anti-PHB2 antibody, and immunoblot analyses were performed using the antibodies shown in the drawing. (B) PKCα activity by EGFR signaling in SK-BR-3 cells is shown. SK-BR-3 cells were treated for 24 hours with 1 μM stERAP, and with 10 nM lapatinib in the presence of stERAP, cell lysates thereof were subjected to immunoprecipitation using an anti-PKCα antibody, and PKCα activities were calculated using CREBtide as a substrate. Data represent the mean±standard error of three independent experiments.
The activities of protein kinase A (PKA) and protein kinase C alpha (PKCα) were measured by reacting the immunoprecipitates of BIG3 and PKCα with a synthetic substrate CREBtide ([…]) and 0.5 mM ATP in a kinase buffer (25 mM Hepes, pH 7.2, 25 mM MgCl2, 5 mM EDTA, 5 mM EGTA, 0.25 mM DTT) at 30° C. for 30 minutes, and by using an ADP-Glo kinase assay Kit (Promega, Fitchburg, Wis., USA).

[1] = tested on: PHB2 (Ser39) phosphorylation; assay: PHB2 (Ser39) phosphorylation in SK-BR-3 cells, immunoblot; format: cell-based, human; details: SK-BR-3, presence of 1 μM stERAP; 100 μg/mL trastuzumab, 10 nM lapatinib
HER2-HER3 interaction = assay: HER2-HER3 interaction, immunoprecipitation with anti-HER2 antibody; format: cell-based, human; details: SK-BR-3, 2 μM AZ3146 and 1 μM stERAP, 24 hours
HER2-Shc interaction = assay: HER2-Shc interaction, immunoprecipitation with anti-HER2 antibody; format: cell-based, human; details: SK-BR-3, 2 μM AZ3146 and 1 μM stERAP, 24 hours

Row | Compound | inhibition rate for PP1Cα activity (PP1Cα) | suppression of BIG3 phosphorylation (Ser305 and Ser1208) (BIG3 phosphorylation) | IC50 (MCF-7 cells) | degradation by chymotrypsin treatment (chromatogram) (chymotrypsin) | IC50 (BT-20) | IC50 (SK-BR-3) | IC50 (MDA-MB-231) | further results
1 | O=S(=O)(NCCNC/C=C/c1ccc(Br)cc1)c1cccc2cnccc12 [H-89] | 96% | nearly completely suppressed | – | – | – | – | – | inhibition rate for PKA activity (PKA; SK-BR-3, 24 hours, 10 μM H-89, 100 μg/mL trastuzumab, 10 nM lapatinib): 100%
2 | CSCC[C@H](NC(=O)[C@H](CCC(N)=O)NC(C)=O)C(=O)N[C@H]1CCC(=O)NCCCCNC(=O)CC[C@@H](C(=O)N[C@H]2CCC(=O)NCCCCNC(=O)CC[C@@H](C(=O)N[C@@H](CCCNC(=N)N)C(N)=O)NC(=O)[C@H](CCCNC(=N)N)NC(=O)[C@H](CC(C)C)NC(=O)[C@H](CCC(N)=O)NC2=O)NC(=O)[C@H](CC(C)C)NC(=O)[C@H](CC(=O)O)NC(=O)[C@H](CO)NC1=O [double stapled ERAP No. 45] (Ac-QMESDLEEQLRER-NH2; linker 3-7, 8-12 via NH(CH2)4NH) | – | – | 2320 nM | several degradation products | 8600 nM | 2800 nM | 23700 nM | inhibition rate on estrogen-dependent cell growth (MCF-7 cells; 1 μM): 21%
3 | CSCC[C@H](NC(=O)[C@H](CCC(N)=O)NC(C)=O)C(=O)N[C@H]1CCC(=O)NCCCCNC(=O)CC[C@@H](C(=O)N[C@@H](CC(C)C)C(=O)N[C@@H](CCC(N)=O)C(=O)N[C@H]2CCC(=O)NCCCCNC(=O)CC[C@@H](C(N)=O)NC(=O)[C@H](CCCNC(=N)N)NC(=O)[C@H](CCC(N)=O)NC(=O)[C@H](CCCNC(=N)N)NC2=O)NC(=O)[C@H](CC(C)C)NC(=O)[C@H](CC(=O)O)NC(=O)[C@H](CO)NC1=O [double stapled ERAP No. 46] (Ac-QMESDLELQERQRE-NH2; linker 3-7, 10-14 via NH(CH2)4NH) | – | – | 430 nM | hardly showed its degradation | 74 nM | 20 nM | 143 nM | inhibition rate on estrogen-dependent cell growth (MCF-7 cells; 10 μM): 91%; inhibition at 1 µM (BIG3-PHB2 interaction; 1 μM): 60%; inhibition at 10 µM (BIG3-PHB2 interaction; 10 μM): 95%; IC50 (SW982): 26 nM
4 | CS(=O)(=O)CCNCc1ccc(-c2ccc3ncnc(Nc4ccc(OCc5cccc(F)c5)c(Cl)c4)c3c2)o1 [lapatinib] | about 15% | not so involved in the suppression of BIG3 phosphorylation | – | – | – | – | – | PKCα activity inhibition (PKCα): approximately 80%; inhibition at 0.01 µM (PKA; SK-BR-3, read-out: inhibition rate for PKA activity): ~15%; decrease of PHB2 (Ser39) phosphorylation [1]: nearly completely suppressed
5 | AZ3146 | – | – | – | – | – | – | – | effect on stERAP inhibition of HER2-HER3 interaction (HER2-HER3 interaction): nearly completely canceled the inhibitory effects; effect on stERAP inhibition of HER2-Shc interaction (HER2-Shc interaction): nearly completely canceled the inhibitory effects
